This is an account of results in patent publication US20250129146A1, “COMBINED CANCER THERAPY WITH AN EPITHELIAL CELL ADHESION MOLECULE (EPCAM) INHIBITOR AND A WNT INHIBITOR” (ACADEMIA SINICA, priority 2021, published 2025).

“Also recorded” adds a separate entry of the source.

Data set [1] concerns active β-Catenin. Nature of the data set: Nuclear translocation of β-Catenin (immunofluorescence staining; cell fractionation with western blot). It counts as cell-based, human. As to conditions: wild-type HCT116 cells; 20 μg/mL EpAb2-6 for 6 h, 400 ng/mL LGK974 for 9 h or combination. How it is done:
Cells (1×10^6) were seeded overnight and further allowed to grow in serum free conditions. Then cells were further treated with 20 μg/mL mEpAb2-6 or hEpAb2-6 or MT201 for 6 h or with 400 ng/mL LGK974 (MedChemExpress) for 9 h or combination as indicated. Samples were fractioned into cytosol and nuclear extracts using nuclear/cytosol fractionation kit (Biovision) according to the manufacturer's protocol. The fractions were then subjected to western blot analysis.
(§1) For western blotting, cells were extracted using radioimmunoprecipitation assay (RIPA) buffer [(0.01 M sodium phosphate, pH 7.2), 150 mM NaCl, 2 mM EDTA, 50 mM NaF, 1% Nonidet P-40, 1% sodium deoxycholate, and 0.1% SDS)] containing phosphatase inhibitor (Roche) and protease inhibitor (Roche) cocktail. Equal amounts of protein were separated by SDS-PAGE and then transferred to PVDF membranes. The membranes were blocked with 3% BSA in TBST (Blocking solution) and incubated with necessary primary antibodies in the blocking solution overnight at 4° C. Membranes were then incubated with HRP-conjugated secondary antibodies in the blocking solution for 1 h at room temperature, and protein expression were detected. Antibodies used: anti-α-tubulin (Sigma), anti-EpCAM (abeam), anti-Active β-Catenin (Millipore), anti-total β-Catenin (abeam), anti-Frizzled 6 (CST), anti-Frizzled 7 (Santa Cruz Biotech), anti-LRP5 (abcam), anti-Phospho-LRP5 (abcam), anti-Phospho-LRP6 (CST), anti-LRP6 (CST) and anti-EpEX antibody EpAb3-5 (Produced in house), anti-ADAM17 (abcam), anti-phopho-ADAM17 (abcam), anti-Presenilin2 (abcam), anti-phospho-Presenilin2 (S327) (abcam), anti-phospho-Presenilin2 (S330) (abcam) and anti-Axin2 (CST).
Glass slides were used in 24-well plates and coated with 0.1% gelatin. Further, 3×10^4 cells were seeded in serum free medium overnight. Cells were treated with 20 μg/mL EpAb2-6 for 6 h, or 400 ng/mL LGK974 (MedChemExpress) for 9 h or the combination. Cells were washed using ice-cold PBS and fixed with 4% paraformaldehyde for 15 min at RT and washed with ice-cold PBS. Further, cells were permeabilized using 0.1% triton-X in PBS for 20 min and subsequently washed with PBS. Cells were blocked with 3% BSA in PBS for 1 h at RT. Next, cells were treated with primary antibody anti-Active β-Catenin (Millipore) overnight. Then, cells were washed and treated with secondary antibody in 3% BSA containing PBS along with DAPI for 1 h at RT. Samples were then washed in PBS five times and mounted for microscopy. Nuclear β-Catenin intensities were calculated using IMARIS (Oxford Instruments) software.

The subject of data set [2] is HCT116, HT29 and SW620 cells. As to the kind of experiment: Tumorsphere assay. It is filed as cell-based, human. The procedure: Cells were seeded in ultra-low adherent 6-well plates (5×10^4 cells per well) or 24-well plates (1×10^3 cells per well) and maintained in DMEM/F-12 supplemented with B27. Further, cells were treated with 20 μg/mL mEpAb2-6, hEpAb2-6 or MT201 (Produced in house), or 400 ng/mL LGK974 (MedChemExpress) or the combination, by direct addition to the culture medium. The entire culture medium, including the treatment component, was changed in every other day. Cells were cultured for 10 days, and on 10th day, spheres were counted and photographed under the microscope.

Data set [3] has as its system HT29 and SW620 cells. As to the kind of experiment: Colony formation assay. It is filed as cell-based, human. The procedure: Cells were seeded in 12-well plate (5×10^3 cells per well) and treated with 20 µg/mL mEpAb2-6, hEpAb2-6 or MT201 (Produced in house) or 400 ng/mL LGK974 (MedChemExpress) or combination as indicated in which case the elements were directly added to the culture medium. The medium along with the treatment component were changed in every alternating day and the cells were allowed to grow for 10 days. On the tenth day, cells were washed and fixed with 4% paraformaldehyde and further stained with 1% crystal violet for 30 min. Colonies were washed 3 times with PBS, and images were taken. Furthermore, to measure colony density, the wells were incubated with 0.5% SDS shaking for 2 h at RT. The supernatants were collected, and the absorbance of the solution was taken at 570 nm using a microplate reader.

Data set [4] deals with LRP5/6. Nature of the data set: Phosphorylation of LRP5/6 (western blot). It counts as cell-based, human. As to conditions: SW620 cells; LGK974, EpAb2-6 or combined treatment. The procedure:
as §1
A general note: A western blot detects proteins with antibodies after separation by electrophoresis.

The subject of data set [5] is Wnt receptors (FZD6/7, LRP5/6). As to the kind of experiment: Wnt receptor protein and mRNA expression (western blot, qPCR). As to conditions: HCT116 cells; EpAb2-6, LGK974 or combination. It counts as cell-based, human. How it is done: as §1
(§2) Total RNA was extracted using TRI reagent and 5 μg of the total RNA was further reverse-transcribed using oligo (dT) primer with reverse transcriptase. Quantitative real time RT-PCR (qPCR) was performed on cDNA using the Light Cycler 480 SYBR Green-I Master kit and the LightCycler480 System. The gene expression levels of each sample were normalized to the expression levels of glyceraldehyde 3-phosphate dehydrogenase (GAPDH) or β-actin.

In data set [6] the test system is Oct4, Sox2 and c-Myc. Nature of the data set: Stemness (pluripotency) factor expression (western blot, qPCR). As to conditions: HT29 cells; LGK974, EpAb2-6 or combined treatment. It counts as cell-based, human. The procedure: as §1, §2
In data set [7] the test system is colon cancer cells (SW620, HCT116). Nature of the data set: Annexin-V/PI apoptosis assay. As to conditions: SW620 and HCT116 cells; 20 μg/mL EpAb2-6, LGK974 or the combination for 24 hrs. It is filed as cell-based, human. The procedure:
Cells were seeded in 24-well plate ([…] cells per well) overnight and then treated with 20 μg/mL mEpAb2-6, hEpAb2-6 or MT201, or […] LGK974 (MedChemExpress) or the combination for 24 hrs. Cell pellets were collected, and an apoptosis assay was performed using an Annexin-V/PI apoptosis kit (BD Biosciences). Results were read by flow cytometry analysis percentage apoptotic cells was calculated.

Data set [8] has as its system HCT116 cells. Nature of the data set: Metastatic animal model of human CRC (HCT116 cells via tail vein). It counts as in vivo, NOD/SCID mice. How it is done: (§3) All animal experiments were approved and performed according to the regulations from the IACUC at Academia Sinica. HCT116 cells (1×10^6) were injected via tail vein for the metastatic model. Otherwise, 2×10^5 HCT116 cells with luciferase were surgically transplanted into the cecum wall for the orthotopic model. Male NOD/SCID mice, approximately 6 to 8 weeks old, were used for animal experiments (n=5 and n=6 for each treatment group in metastatic and orthotopic models respectively). At 72-h post-injection/transplantation, mice were randomly distributed into four different treatment groups. For the treatments, animals were injected with 20 mg/kg IgG or EpAb2-6 via tail vein twice a week for four weeks, or fed by oral gavage with either vehicle [0.5% methylcellulose (Sigma-Aldrich) and 0.5% Tween80 (Sigma-Aldrich)] or 5 mg/kg LGK974 (MedChemExpress) formulated with the vehicle on alternating days for four weeks, or animals were treated with the combination of both inhibitor and antibody. For the metastatic model, survival was the main endpoint. For the orthotopic model, tumor progression was monitor using bioluminescence imaging. To image the tumors, intraperitoneal injection of D-Luciferin (GOLD BIO) was performed, and images were taken 10 min post-injection.

The subject of data set [9] is HCT116 cells. Nature of the data set: Orthotopic animal model of human CRC (HCT116 cells with luciferase in cecum wall). It counts as in vivo, NOD/SCID mice. How it is done: as §3
The conditions of data set [10]: dose of 5 mg/kg body weight; cited from earlier work.
Setting [11] is: EpCAM-knockout cells, exogenous EpEX, LGK974 or both.

Consider `Cc1cc(-c2ncc(CC(=O)Nc3ccc(-c4cnccn4)cn3)cc2C)ccn1` [LGK974, 2-(2′,3-dimethyl-[2,4′-bipyridin]-5-yl)-N-(5-(pyrazin-2-yl)pyridin-2-yl)acetamide, reference compound], for which the “nuclear β-Catenin” value in data set [1] is given as “decreased nuclear D3-Catenin but did not completely clear the protein from the nucleus”. The tumorsphere formation result was “complete loss of ability to form spheres or colonies” in data set [2] (setting [11]); “decreased” in data set [2] (HCT116 and HT29 cells, 20 μg/mL EpAb2-6, 400 ng/mL LGK974 or combination, 10 days). Also, in data set [2] (summary statement, CRC cells, tumorsphere and colony formation), the cancer stemness properties result was “partially attenuate cancer sternness properties”. The colony formation result in data set [3] (setting [11]) is reported as “complete loss of ability to form spheres or colonies”; in data set [3] (HT29 cells, 20 µg/mL EpAb2-6, 400 ng/mL LGK974 or combination, 10 days) it was “decreased”. For the same compound, in [4], the LRP5/6 phosphorylation entry was “could decrease LRP5/6 phosphorylation”. The “expression of Wnt receptors” value in data set [5] is on record as “partially decrease”. The “expression of pluripotency factors” value in data set [6] is reported as “decreased pluripotency factor expressions”. Besides, the induction of apoptosis entry in [7] is “did not observe significant effects”. Also, the animal survival entry in [8] (20 mg/kg EpAb2-6 via tail vein twice a week, 5 mg/kg LGK974 oral gavage on alternating days, four weeks) was “decreased overall survival”. Besides, in data set [8] (autopsies), the distant metastases entry is listed as “distinct metastases; also recorded: found to have distant metastases”. Besides, in data set [9] (orthotopic model), the “body weight after cessation of treatment” value is “continued to lose body weight”. For the same compound, the “median / overall survival” value in data set [9] (orthotopic model) is given as “low median survival”. For the same compound, in data set [9] (orthotopic model, 5 mg/kg LGK974), the “body weight during the treatment period” value is “decreased during the treatment period”. In data set [9] (orthotopic model, 20 mg/kg EpAb2-6 via tail vein twice a week, 5 mg/kg LGK974 oral gavage on alternating days, four weeks), the “tumor progression (bioluminescence)” value was “developed significant tumors”. Also, the “tumor (cancer) progression in animal models” value in data set [9] (summary statement, metastatic and orthotopic animal models of human CRC) is “did not observe significant effects”. In data set [10], the toxicity result is listed as “non-toxic”.
